Measured values from PubChem BioAssay AID330 (DTP/NCI, 2004).
Where “and” joins values, the source holds several entries; their conditions need not be identical. Identical values can stand only once. Inconclusive results and toxic doses are left out. The calls were made as follows: active = survival T/C of 150% or more; inactive = T/C below 125% in these data.

Tested on: P388 leukemia ip, CD2F1 mice, survival T/C
Experiment: NCI In Vivo Anticancer Drug Screen. Data for tumor model P388 Leukemia (intraperitoneal) in CD2F1 (CDF1) mice
Conditions: endpoint: median survival time, higher = longer survival
How it was run: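 Mice carrying the transplanted tumor received test compound or vehicle. Survival was recorded in each group, and the value is the treated-group measurement divided by that of the vehicle-treated control group.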

[1] = dose: 60.0 mg/kg/injection, schedule: Q01DX005 (ip), vehicle: saline with Tween-80
[2] = dose: 120.0 mg/kg/injection, schedule: Q01DX005 (ip), vehicle: saline with Tween-80
[3] = dose: 240.0 mg/kg/injection, schedule: Q01DX005 (ip), vehicle: saline with Tween-80
[4] = dose: 100.0 mg/kg/injection, schedule: Q01DX001 (ip), vehicle: Klucel (hydroxypropylcellulose) (HPC)
[5] = dose: 50.0 mg/kg/injection, schedule: Q01DX009 (ip), vehicle: saline with Tween-80
[6] = dose: 100.0 mg/kg/injection, schedule: Q01DX009 (ip), vehicle: saline with Tween-80
[7] = dose: 200.0 mg/kg/injection, schedule: Q01DX009 (ip), vehicle: saline with Tween-80
[8] = dose: 25.0 mg/kg/injection, schedule: Q01DX009 (ip), vehicle: saline
[9] = dose: 12.5 mg/kg/injection, schedule: Q01DX009 (ip), vehicle: saline
[10] = dose: 50.0 mg/kg/injection, schedule: Q01DX009 (ip), vehicle: saline
[11] = dose: 100.0 mg/kg/injection, schedule: Q01DX009 (ip), vehicle: saline

Measured: T/C

Brc1ccc(Nc2ccccn2)cc1
inactive: dose: 12.5 mg/kg/injection, schedule: Q01DX009 (ip), vehicle: other 108 % of control | dose: 25.0 mg/kg/injection, schedule: Q01DX009 (ip), vehicle: other 97 % of control | dose: 50.0 mg/kg/injection, schedule: Q01DX009 (ip), vehicle: other 105 % of control | dose: 100.0 mg/kg/injection, schedule: Q01DX009 (ip), vehicle: other 105 % of control | dose: 200.0 mg/kg/injection, schedule: Q01DX009 (ip), vehicle: other 106 % of control

COc1cc(/C=C\Cc2cc3c(cc2OC(C)=O)OCO3)cc(OC)c1OC
inactive: [1] 91 % of control | [2] 91 % of control | [3] 90 % of control

C[N+](C)(CC(=O)Nc1cccc(C(F)(F)F)c1)CC(=O)Nc1cccc(C(F)(F)F)c1
inactive: dose: 3.13 mg/kg/injection, schedule: Q01DX009 (ip), vehicle: saline sonified 100 % of control | dose: 6.25 mg/kg/injection, schedule: Q01DX009 (ip), vehicle: saline sonified 104 % of control | dose: 12.5 mg/kg/injection, schedule: Q01DX009 (ip), vehicle: saline sonified 109 % of control

Cc1cc2cc(CN)ccc2n1C
inactive: [4] 103 % of control

C=CCN(CC=C)C(=O)Nc1cccc2c(NC(=O)N(CC=C)CC=C)cccc12
inactive: [1] 93 % of control | [2] 97 % of control | [3] 97 % of control

O=C1C=CC(=O)C(CC2CCCC2C2=CC(=O)C=CC2=O)=C1 (centres undefined)
inactive: dose: 6.25 mg/kg/injection, schedule: Q04DX002 (ip), vehicle: saline with Tween-80 109 % of control | dose: 12.5 mg/kg/injection, schedule: Q04DX002 (ip), vehicle: saline with Tween-80 101 % of control | dose: 25.0 mg/kg/injection, schedule: Q04DX002 (ip), vehicle: saline with Tween-80 99 % of control and 109 % of control

NC(N)=N/N=C1C=C/C(=N/N=C(N)N)C/1
inactive: dose: 25.0 mg/kg/injection, schedule: Q01DX001 (ip), vehicle: saline 104 % of control | dose: 50.0 mg/kg/injection, schedule: Q01DX001 (ip), vehicle: saline 100 % of control | dose: 100.0 mg/kg/injection, schedule: Q01DX001 (ip), vehicle: saline 107 % of control | dose: 200.0 mg/kg/injection, schedule: Q01DX001 (ip), vehicle: saline 94 % of control

CC(=O)Sc1ccccc1C(=O)NC1CCCCC1
inactive: [5] 114 % of control | [6] 117 % of control | [7] 114 % of control

C=C(C)CCOS(=O)(=O)c1ccc(C)cc1
inactive: [5] 102 % of control | [6] 110 % of control | [7] 90 % of control

CC(C)Cc1c[nH]c(=O)[nH]c1=O
inactive: [6] 95 % of control | [7] 95 % of control | dose: 400.0 mg/kg/injection, schedule: Q01DX009 (ip), vehicle: saline with Tween-80 91 % of control

CC1(C)COCN1COC1CCCCC1
inactive: [8] 120 % of control

CC(C)(C)OOC(=O)c1ccccc1O
inactive: dose: 100.0 mg/kg/injection, schedule: Q04DX003 (ip), vehicle: saline sonified 100 % of control | dose: 200.0 mg/kg/injection, schedule: Q04DX003 (ip), vehicle: saline sonified 100 % of control

O=[N+]([O-])c1ccc(/C(=C/c2ccc(Cl)cc2Cl)S(=O)(=O)C(Cl)Cl)o1
inactive: dose: 50.0 mg/kg/injection, schedule: Q01DX009 (ip), vehicle: suspension in saline 86 % of control | dose: 100.0 mg/kg/injection, schedule: Q01DX009 (ip), vehicle: suspension in saline 96 % of control | dose: 200.0 mg/kg/injection, schedule: Q01DX009 (ip), vehicle: suspension in saline 103 % of control

O=C(OC1(c2nccc3ccccc23)CCN(CCc2ccccc2)CC1)c1ccccc1
inactive: dose: 6.25 mg/kg/injection, schedule: Q01DX009 (ip), vehicle: saline 105 % of control | [9] 99 % of control | [8] 97 % of control

CC1(C)CC2(C)OC2C2(C1)N=NC(=O)O2 (centres undefined)
inactive: dose: 50.0 mg/kg/injection, schedule: Q01DX009 (ip), vehicle: saline + alcohol 90 % of control | [5] 89 % of control | dose: 100.0 mg/kg/injection, schedule: Q01DX009 (ip), vehicle: saline + alcohol 100 % of control | [6] 87 % of control | dose: 200.0 mg/kg/injection, schedule: Q01DX009 (ip), vehicle: saline + alcohol 93 % of control | dose: 400.0 mg/kg/injection, schedule: Q01DX009 (ip), vehicle: saline + alcohol 108 % of control

O=C(C(Oc1ccc(Cl)cc1)n1cncn1)N1CCOC1C1CCCCC1 (centres undefined)
inactive: dose: 50.0 mg/kg/injection, schedule: Q01DX001 (ip), vehicle: Klucel (hydroxypropylcellulose) (HPC) 103 % of control | [4] 100 % of control | dose: 200.0 mg/kg/injection, schedule: Q01DX001 (ip), vehicle: Klucel (hydroxypropylcellulose) (HPC) 100 % of control

CC(CN1CCOCC1)(CN1CCOCC1)[N+](=O)[O-]
inactive: [9] 111 % of control | [8] 110 % of control | [10] 107 % of control and 111 % of control | [11] 115 % of control

Nc1nc(NCCCc2ccccc2)c(N=Nc2ccccc2)c(=O)[nH]1
inactive: [1] 105 % of control | [2] 105 % of control | [3] 105 % of control

COc1cccc(/C=N\c2nc(-c3ccccc3Cl)cs2)c1O
inactive: dose: 50.0 mg/kg/injection, schedule: Q01DX005 (ip), vehicle: Klucel (hydroxypropylcellulose) (HPC) 89 % of control | dose: 100.0 mg/kg/injection, schedule: Q01DX005 (ip), vehicle: Klucel (hydroxypropylcellulose) (HPC) 94 % of control | dose: 200.0 mg/kg/injection, schedule: Q01DX005 (ip), vehicle: Klucel (hydroxypropylcellulose) (HPC) 105 % of control

CCOc1ccc(NC(=O)OCCN2CCN(CCc3ccccc3)C(C)C2)cc1 (centres undefined)
inactive: dose: 12.5 mg/kg/injection, schedule: Q01DX009 (ip), vehicle: saline with Tween-80 97 % of control | dose: 25.0 mg/kg/injection, schedule: Q01DX009 (ip), vehicle: saline with Tween-80 94 % of control | [5] 100 % of control

COc1ccc(NC(=O)N2CCOCC2)cc1
inactive: [10] 92 % of control | [11] 92 % of control | dose: 200.0 mg/kg/injection, schedule: Q01DX009 (ip), vehicle: saline 88 % of control

C=CC12COC(=O)C(=C)C1C(O)C1C(=C)C(=O)OC1C2 (centres undefined)
inactive: dose: 0.5 mg/kg/injection, schedule: Q01DX009 (ip), vehicle: saline 97 % of control | dose: 1.0 mg/kg/injection, schedule: Q01DX009 (ip), vehicle: saline 97 % of control | dose: 2.0 mg/kg/injection, schedule: Q01DX009 (ip), vehicle: saline 106 % of control | dose: 4.0 mg/kg/injection, schedule: Q01DX009 (ip), vehicle: saline 110 % of control
